Measured values published in US7820645B2, “Crystalline forms” (AstraZeneca AB, priority 2006, dated 2010).
≈ marks a conversion by molar mass, not a printed value. Read-outs that look alike come from different tables or passages of the source.

Legend:
[1] = Solubility in organic solvents (gravimetric, saturated solution from one-day slurry); assay type: physicochemical; conditions: for solubility at 1 day: organic solvent or mixture, thermodynamic from solid, 22° C.
Method: An excess of Compound A from Example 3 above was slurried in ethyl acetate for one day. A proportion of the saturated solution was then withdrawn through a 0.5 micrometer filter to a pre-weighted E-flask. The E-flask was weighed and then opened & evaporated in air, and then dried in vacuum at 40° C. until the weight was constant. The weight of the solution, the weight of dry substance, the weight of solvent and the volume of solvent were determined (using the density of ethyl acetate at 22° C.=0.90 g/ml).
(§1) An excess of Compound B from Example 2 above was slurried in isopropanol for one day in a closed vessel. A proportion of the saturated solution was then withdrawn through a 0.5 micrometer filter to a pre-weighted E-flask. The E-flask was weighed and then opened & evaporated in air, and then dried in vacuum at 70° C. until the weight was constant. The weight of the solution, the weight of dry substance, the weight of solvent and the volume of solvent were determined (using the density of isopropanol at 22° C.=0.79 g/ml).
as §1, with “Compound A” for “Compound B”, “Example 6” for “Example 2”
(§2) An excess of Compound A from Example 6 above was slurried in ethanol for one day in a closed vessel. A proportion of the saturated solution was then withdrawn through a 0.5 micrometer filter to a pre-weighed E-flask. The E-flask was weighed and then opened and evaporated in air, and then dried in vacuum at 40-50° C. until the weight was constant. The weight of the solution, the weight of dry substance, the weight of solvent and the volume of solvent were determined (using the density of ethanol at 22° C.=0.79 g/ml).
as §2, with “in methanol” for “in ethanol”, “a pre-weighted” for “a pre-weighed”, “opened &” for “opened and”, “of methanol” for “of ethanol”
as §1, with “Compound A” for “Compound B”, “Example 6” for “Example 2”, “in acetone” for “in isopropanol”, “of acetone” for “of isopropanol”, “22° C.=0.82” for “22° C.=0.79”

[2] = target: T1, thrombin (Homo sapiens, UniProt P00734); conditions: Test D of WO 02/44145; disclosed in Example 47 of WO 02/44145; cited from earlier work
[3] = target: T1, thrombin; conditions: Test A of WO 02/44145; disclosed in Example 46 of WO 02/44145; cited from earlier work
[4] = isopropanol, Compound B from Example 2 or Compound A anhydrate from Example 6
[5] = isopropanol, Compound B from Example 2 or Compound A anhydrate from Example 6, read-out: solubility (mg per ml isopropanol)

With `CO/N=C(\N)c1ccc(CNC(=O)[C@@H]2CCN2C(=O)[C@H](O)c2cc(Cl)cc(OC(F)F)c2)cc1` [Compound A, Ph(3-Cl)(5-OCHF2)—(R)CH(OH)C(O)-Aze-Pab(OMe)] the “solubility as weight %” value ([1]; acetone, Compound A from Example 6) was 33 % w/w, the “solubility as weight %” value ([1]; ethanol, Compound A from Example 6) was 10 % w/w and the “solubility as weight %” value ([1]; ethyl acetate, Compound A from Example 3) was 4 % w/w. The “solubility as weight %” value [1, 4] was 2 % w/w, the “solubility as weight %” value ([1]; methanol, Compound A from Example 6) was 45 % w/w and the solubility at 1 day ([1]; acetone, Compound A from Example 6, read-out: solubility (mg per ml acetone)) was 398 mg/mL (≈ 801 mM). For the same compound, the solubility at 1 day ([1]; ethanol, Compound A from Example 6, read-out: solubility (mg per ml ethanol)) was 87 mg/mL (≈ 175 mM), the solubility at 1 day ([1]; ethyl acetate, Compound A from Example 3, read-out: solubility (mg per ml ethyl acetate)) was 36 mg/mL (≈ 72.4 mM) and the solubility at 1 day [1, 5] was 15 mg/mL (≈ 30.2 mM). It also gave a solubility at 1 day ([1]; methanol, Compound A from Example 6, read-out: solubility (mg per ml methanol)) of 655 mg/mL (≈ 1320 mM).
With `N/C(=N\O)c1ccc(CNC(=O)[C@@H]2CCN2C(=O)[C@H](O)c2cc(Cl)cc(OC(F)F)c2)cc1` [Compound B, Ph(3-Cl)(5-OCHF2)—(R)CH(OH)C(O)-Aze-Pab(OH)] the “solubility as weight %” value [1, 4] was 0.4 % w/w and the solubility at 1 day [1, 5] was 3 mg/mL (≈ 6.21 mM).
For `N=C(N)c1ccc(CNC(=O)[C@@H]2CCN2C(=O)[C@H](O)c2cc(Cl)cc(OC(F)F)c2)cc1` [Compound C], the IC50 [2] is given as < 1000 nM and the IC50 [3] is given as < 20 nM.
